# Laboratory results as given in patent US20070049593A1 (priority 2004, published 2007).
# Counter-ions that a name gives are not always drawn.
# Molecular target: T1, HCV polymerase (Hepatitis C virus genotype 1b, UniProt P26663)
# T1 construct: a region encoding NS5B (J Virol 1991 March, 65(3), 1105-13, 544 amino acids after deletion of 47 amino acids on the C-terminal); 6xHis (C); made in house; host or cells: Escherichia coli
# Assay: biochemical
# Design: species or system HCV BK strain
# Summary of the method: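 His-tagged NS5B (BK strain, 47-aa C-terminal deletion, E. coli-expressed) at 0.5 μg/ml copied 5 μg/ml run-off RNA bearing the HCV 3′ UTR with 2 μM UTP plus [3H]UTP, 50 μM ATP/GTP, in pH 7.5 Tris with 5 mM MgCl2, 25 °C, 90 min. TCA-precipitated RNA was counted and IC50 calculated.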
# T1 sequence (P26663 2420-2963): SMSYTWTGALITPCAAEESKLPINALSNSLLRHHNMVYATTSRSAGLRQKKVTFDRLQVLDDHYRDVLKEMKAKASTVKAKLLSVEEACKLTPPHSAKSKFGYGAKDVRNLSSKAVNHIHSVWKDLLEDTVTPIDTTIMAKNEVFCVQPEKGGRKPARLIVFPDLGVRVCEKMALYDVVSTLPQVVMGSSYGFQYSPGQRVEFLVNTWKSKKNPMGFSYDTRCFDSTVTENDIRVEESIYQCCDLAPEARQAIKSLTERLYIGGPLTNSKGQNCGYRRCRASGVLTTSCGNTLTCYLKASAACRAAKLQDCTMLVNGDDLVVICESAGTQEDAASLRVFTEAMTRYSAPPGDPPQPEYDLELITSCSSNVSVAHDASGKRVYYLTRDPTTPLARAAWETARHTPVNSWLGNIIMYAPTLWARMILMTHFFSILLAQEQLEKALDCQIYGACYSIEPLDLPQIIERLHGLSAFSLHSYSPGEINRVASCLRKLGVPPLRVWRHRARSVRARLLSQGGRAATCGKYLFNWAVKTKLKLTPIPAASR
row,Structure (SMILES),IC50 [nM]
1,"COC(=O)N1CC[C@H](Oc2ccc3c(c2)OCCn2c-3c(C3CCCCC3)c3ccc(C(=O)O)cc32)C1 [Example 2-50, 12-cyclohexyl-3-((S)-1-methoxycarbonylpyrrolidin-3-yloxy)-6,7-dihydro-5-oxa-7a-azadibenzo[a,e]azulene-9-carboxylic acid]",< 100
2,"CC(C)[C@@H](COc1ccc2c(c1)OCCn1c-2c(C2CCCCC2)c2ccc(C(=O)O)cc21)NS(C)(=O)=O [Example 2-51, 12-cyclohexyl-3-((S)-2-methanesulfonylamino-3-methylbutoxy)-6,7-dihydro-5-oxa-7a-azadibenzo[a,e]azulene-9-carboxylic acid]",< 100
3,"COC(=O)Nc1ccccc1Oc1ccc2c(c1)OCCn1c-2c(C2CCCCC2)c2ccc(C(=O)O)cc21 [Example 2-52, 12-cyclohexyl-3-[2-(methoxycarbonylamino)phenoxy]-6,7-dihydro-5-oxa-7a-azadibenzo[a,e]azulene-9-carboxylic acid]",< 100
4,"O=C(O)c1ccc2c(C3CCCCC3)c3n(c2c1)CCOc1c(OCCN2CCCCC2)cccc1-3 [Example 2-53, 12-cyclohexyl-4-[2-(piperidin-1-yl)ethoxy]-6,7-dihydro-5-oxa-7a-azadibenzo[a,e]azulene-9-carboxylic acid hydrochloride]",< 100
5,"O=C(O)c1ccc(NC(=O)C2(NC(=O)c3ccc4c(C5CCCCC5)c5n(c4c3)CCOc3ccccc3-5)CCC2)nc1 [Example 2-54, 6-({1-[(12-cyclohexyl-6,7-dihydro-5-oxa-7a-azadibenzo[a,e]azulene-9-carbonyl)amino]cyclobutanecarbonyl}amino)nicotinic acid]",< 100
6,"O=C(O)CNC(=O)C1(NC(=O)c2ccc3c(C4CCCCC4)c4n(c3c2)CCOc2ccccc2-4)CCC1 [Example 2-55, ({1-[(12-cyclohexyl-6,7-dihydro-5-oxa-7a-azadibenzo[a,e]azulene-9-carbonyl)amino]cyclobutanecarbonyl}amino)acetic acid]",< 100
7,"O=C(NC1(C(=O)NC2(C(=O)O)CCC2)CCC1)c1ccc2c(C3CCCCC3)c3n(c2c1)CCOc1ccccc1-3 [Example 2-151, 1-({1-[(12-cyclohexyl-6,7-dihydro-5-oxa-7a-azadibenzo[a,e]azulene-9-carbonyl)amino]cyclobutanecarbonyl}amino)cyclobutanecarboxylic acid]",< 100
8,"COC(=O)c1ccc2nc(C3(NC(=O)c4ccc5c(C6CCCCC6)c6n(c5c4)CCOc4ccccc4-6)CCC3)[nH]c2c1 [Example 2-152, methyl 2-{1-[(12-cyclohexyl-6,7-dihydro-5-oxa-7a-azadibenzo[a,e]azulene-9-carbonyl)amino]cyclobutyl}-3H-benzimidazole-5-carboxylate]",< 100
9,"O=C(O)c1ccc(N[C@@H]2CCCC[C@H]2NC(=O)c2ccc3c(C4CCCCC4)c4n(c3c2)CCOc2ccccc2-4)cc1 [Example 2-153, 4-{(1R,2R)-2-[(12-cyclohexyl-6,7-dihydro-5-oxa-7a-azadibenzo[a,e]azulene-9-carbonyl)amino]cyclohexylamino}benzoic acid]",< 100
10,"COCC(C)(NC(=O)c1ccc2c(C3CCCCC3)c3n(c2c1)CCOc1ccccc1-3)C(=O)O (stereo not shown) [Example 2-154, 2-[(12-cyclohexyl-6,7-dihydro-5-oxa-7a-azadibenzo[a,e]azulene-9-carbonyl)amino]-3-methoxy-2-methylpropionic acid]",100 to 1000
11,"CC(C)(C)OC(=O)N1CCC(NC(=O)c2ccc3c(C4CCCCC4)c4n(c3c2)CCOc2ccccc2-4)(C(=O)Nc2ccc(/C=C/C(=O)O)cc2)CC1 [Example 2-155, tert-butyl 4-[4-((E)-2-carboxyvinyl)phenylcarbamoyl]-4-[(12-cyclohexyl-6,7-dihydro-5-oxa-7a-azadibenzo[a,e]azulene-9-carbonyl)amino]piperidine-1-carboxylate]",< 100
12,"CC(C)(COc1ccc(C(=O)O)cc1)NC(=O)c1ccc2c(C3CCCCC3)c3n(c2c1)CCOc1ccccc1-3 [Example 2-156, 4-{2-[(12-cyclohexyl-6,7-dihydro-5-oxa-7a-azadibenzo[a,e]azulene-9-carbonyl)amino]-2-methylpropoxy}benzoic acid]",< 100
13,"CC(C)(COc1ccc(C#N)cc1)NC(=O)c1ccc2c(C3CCCCC3)c3n(c2c1)CCOc1ccccc1-3 [Example 2-157, N-[2-(4-cyanophenoxy)-1,1-dimethylethyl]-12-cyclohexyl-6,7-dihydro-5-oxa-7a-azadibenzo[a,e]azulene-9-carboxamide]",100 to 1000
14,"CC(C)(CNc1ccc(C#N)cc1)NC(=O)c1ccc2c(C3CCCCC3)c3n(c2c1)CCOc1ccccc1-3 [Example 2-158, N-[2-(4-cyanophenylamino)-1,1-dimethylethyl]-12-cyclohexyl-6,7-dihydro-5-oxa-7a-azadibenzo[a,e]azulene-9-carboxamide]",< 100
15,"O=C(O)c1ccc2nc(C3(NC(=O)c4ccc5c(C6CCCCC6)c6n(c5c4)CCOc4ccccc4-6)CCC3)[nH]c2c1 [Example 2-160, 2-{1-[(12-cyclohexyl-6,7-dihydro-5-oxa-7a-azadibenzo[a,e]azulene-9-carbonyl)amino]cyclobutyl}-3H-benzimidazole-5-carboxylic acid]",< 100
16,"CC(C)N(CCN1CCCCC1)c1cccc2c1OCCn1c-2c(C2CCCCC2)c2ccc(C(=O)O)cc21 [Example 2-161, 12-cyclohexyl-4-{N-isopropyl-N-[2-(piperidin-1-yl)ethyl]amino}-6,7-dihydro-5-oxa-7a-azadibenzo[a,e]azulene-9-carboxylic acid dihydrochloride]",< 100
17,"CN(C)CCN(C)c1cccc2c1OCCn1c-2c(C2CCCCC2)c2ccc(C(=O)O)cc21 [Example 2-162, 12-cyclohexyl-4-[N-(2-dimethylaminoethyl)-N-methylamino]-6,7-dihydro-5-oxa-7a-azadibenzo[a,e]azulene-9-carboxylic acid dihydrochloride]",< 100
18,"COCC(C)(NC(=O)c1ccc2c(C3CCCCC3)c3n(c2c1)CCOc1ccccc1-3)C(=O)Nc1ccc(/C=C/C(=O)O)cc1 (stereo not shown) [Example 2-163, (E)-3-(4-{2-[(12-cyclohexyl-6,7-dihydro-5-oxa-7a-azadibenzo[a,e]azulene-9-carbonyl)amino]-3-methoxy-2-methylpropionylamino}phenyl)acrylic acid]",< 100
19,"O=C(NCCOCCO)c1ccc2c(C3CCCCC3)c3n(c2c1)CCOc1ccccc1-3 [Example 2-164, N-[2-(2-hydroxyethoxy)ethyl]-12-cyclohexyl-6,7-dihydro-5-oxa-7a-azadibenzo[a,e]azulene-9-carboxamide]",100 to 1000
20,"CC(C)(C)NC(=O)c1ccc2c(C3CCCCC3)c3n(c2c1)CCOc1ccccc1-3 [Example 2-165, N-tert-butyl-12-cyclohexyl-6,7-dihydro-5-oxa-7a-azadibenzo[a,e]azulene-9-carboxamide]",100 to 1000
21,"O=C(N[C@H]1CC[C@H](O)CC1)c1ccc2c(C3CCCCC3)c3n(c2c1)CCOc1ccccc1-3 [Example 2-166, N-(trans-4-hydroxycyclohexyl)-12-cyclohexyl-6,7-dihydro-5-oxa-7a-azadibenzo[a,e]azulene-9-carboxamide]",< 100
22,"CC(C)(NC(=O)c1ccc2c(C3CCCCC3)c3n(c2c1)CCOc1ccccc1-3)c1nc(C(=O)O)cs1 [Example 2-167, 2-{1-[(12-cyclohexyl-6,7-dihydro-5-oxa-7a-azadibenzo[a,e]azulene-9-carbonyl)amino]-1-methylethyl}thiazole-4-carboxylic acid]",< 100
